Source: patent US7807678B2, “Peptidomimetics of biologically active metallopeptides” (Palatin Technologies, Inc., priority 2001, dated 2010)

How the values were obtained:
Conditions in all cases: 1 μM compound; inhibition of 125I-NDP-α-MSH binding; mean of triplicates; results less than 0% reported as 0%
[1] = target: T1, MC1-R (B-16 mouse melanoma cells) (Mus musculus, UniProt Q01727); test: Competitive inhibition binding assay, 125I-NDP-α-MSH, MC1-R
T1 construct: B-16 mouse melanoma cells (containing MC1-R); endogenous in cells; host or cells: B-16 mouse melanoma cells
T1 sequence (Q01727 whole entry): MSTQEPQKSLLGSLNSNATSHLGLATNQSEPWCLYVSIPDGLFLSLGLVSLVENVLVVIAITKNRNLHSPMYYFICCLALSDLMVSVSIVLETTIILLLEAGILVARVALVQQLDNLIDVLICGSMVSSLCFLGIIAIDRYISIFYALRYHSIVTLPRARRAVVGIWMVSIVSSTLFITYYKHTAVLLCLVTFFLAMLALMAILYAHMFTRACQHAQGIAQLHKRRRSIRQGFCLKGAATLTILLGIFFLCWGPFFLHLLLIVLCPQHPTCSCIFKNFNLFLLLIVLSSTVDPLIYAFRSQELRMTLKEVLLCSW
Description: (§1) The competitive inhibition binding assay was conducted using membranes prepared from hMC3-R, hMC4-R, hMC5-R, and B-16 mouse melanoma cells (containing MC1-R) using 0.4 nM ^125I-NDP-α-MSH (New England Nuclear, Boston, Mass., USA) in 50 mM HEPES buffer containing 1 mM MgCl2, 2 mM CaCl2, and 5 mM KCl, at pH 7.2. The assay tube also contained a chosen concentration of the test peptidomimetic of this invention, generally 1 μM, for determining its efficacy in inhibiting the binding of ^125I-NDP-α-MSH to its receptor.
(§2) Incubation was for 90 minutes at room temperature, after which the assay mixture was filtered and the membranes washed three times with ice cold buffer. The filter was dried and counted in a gamma counter for remaining radioactivity bound to the membranes. 100% specific binding was defined as the difference in radioactivity (cpm) bound to cell membranes in the absence and presence of 1 μM α-MSH. […] Each assay was conducted in triplicate and the actual mean values are described.

MC5-R = MC5-R (Homo sapiens, UniProt P33032); test: Competitive inhibition binding assay, 125I-NDP-α-MSH, MC5-R; set-up: expressed in transfected cells
MC5-R, sequence (P33032 whole entry): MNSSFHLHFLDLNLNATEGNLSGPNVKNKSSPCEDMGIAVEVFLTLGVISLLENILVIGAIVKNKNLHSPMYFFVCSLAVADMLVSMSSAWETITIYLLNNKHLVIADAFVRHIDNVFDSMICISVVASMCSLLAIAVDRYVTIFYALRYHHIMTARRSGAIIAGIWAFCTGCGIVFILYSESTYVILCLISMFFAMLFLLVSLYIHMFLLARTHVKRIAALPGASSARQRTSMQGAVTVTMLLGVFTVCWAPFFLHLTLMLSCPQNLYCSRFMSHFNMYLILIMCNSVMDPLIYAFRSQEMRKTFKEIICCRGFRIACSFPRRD
Description: as §1, §2

MC4-R = MC4-R (Homo sapiens, UniProt P32245); test: Competitive inhibition binding assay, 125I-NDP-α-MSH, MC4-R; set-up: expressed in transfected cells
MC4-R, sequence (P32245 whole entry): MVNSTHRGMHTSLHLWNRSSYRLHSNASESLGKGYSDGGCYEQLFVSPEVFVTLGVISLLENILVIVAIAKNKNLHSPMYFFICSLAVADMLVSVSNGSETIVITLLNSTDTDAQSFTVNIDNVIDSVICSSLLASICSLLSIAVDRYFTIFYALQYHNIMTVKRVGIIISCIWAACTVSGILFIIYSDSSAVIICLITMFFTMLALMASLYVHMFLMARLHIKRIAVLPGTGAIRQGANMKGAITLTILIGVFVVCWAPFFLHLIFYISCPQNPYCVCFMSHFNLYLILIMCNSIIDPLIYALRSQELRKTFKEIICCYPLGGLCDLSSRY
Description: as §1, §2

MC3-R = MC3-R (Homo sapiens, UniProt P41968); test: Competitive inhibition binding assay, 125I-NDP-α-MSH, MC3-R; set-up: expressed in transfected cells
MC3-R, sequence (P41968 whole entry): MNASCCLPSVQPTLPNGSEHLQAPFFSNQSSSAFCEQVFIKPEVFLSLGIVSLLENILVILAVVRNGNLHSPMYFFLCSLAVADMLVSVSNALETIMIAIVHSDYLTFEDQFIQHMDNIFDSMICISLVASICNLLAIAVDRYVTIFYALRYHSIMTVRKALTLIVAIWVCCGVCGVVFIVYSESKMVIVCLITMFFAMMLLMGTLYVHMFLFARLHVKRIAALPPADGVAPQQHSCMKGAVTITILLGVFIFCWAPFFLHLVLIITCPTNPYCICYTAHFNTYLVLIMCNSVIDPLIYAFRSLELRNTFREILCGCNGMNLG
Description: as §1, §2

Structure (SMILES)	Inhibition at 1 μM MC1-R [1] [%]	Inhibition at 1 μM MC5-R (MC5-R) [%]	Inhibition at 1 μM MC4-R (MC4-R) [%]	Inhibition at 1 μM MC3-R (MC3-R) [%]
N=C(N)NCC[C@H]1C(=O)N(CCc2ccc3ccccc3c2)CCN1C(=O)[C@H](N)Cc1ccc(Cl)cc1Cl [Example 56]	21	24	81	13
NCCCNC(=O)[C@@H]1C[C@@H](OCc2ccccc2)CN1C(=O)[C@@H](Cc1ccccc1)NC(=O)C1(N)Cc2ccccc2C1 [Example 163]	0	0	15	16
CCCCCCC(=O)N[C@@H](COCc1ccccc1)C(=O)N[C@H](Cc1ccc(Cl)cc1)C(=O)N1CCN(CCc2c[nH]c3ccccc23)C(=O)[C@@H]1CCCCN [Example 78]	96	99	99	72
NCCCNC(=O)C1CC(OCc2ccccc2)CN1C(=O)C(Cc1ccccc1)NC(=O)C1NCCc2ccccc21 (stereo not shown) [Example 160]	1	0	5	36
N[C@H](Cc1ccc(Cl)cc1Cl)C(=O)N1CCN(CCc2ccc3ccccc3c2)C(=O)[C@@H]1CCCCNC(=O)CC1CCCCC1 [Example 62]	0	2	6	4
NCCCC[C@H]1C(=O)N2C(CC[C@@H]2COc2ccc3ccccc3c2)N1C(=O)[C@@H](Cc1ccccc1Cl)NC(=O)[C@@H]1CC[C@H](c2ccccc2)N1 (stereo partly shown) [Example 85]	4	13	44	0
NCCCNC(=O)[C@@H]1C[C@@H](OCc2ccccc2)CN1C(=O)[C@@H](Cc1ccccc1)NC(=O)[C@H](Cc1cnc[nH]1)NC(=O)CC1CCCCC1 [Example 142]	85	12	0	3
CCNC(=N)NCCC[C@H]1C(=O)N(CCc2ccc3ccccc3c2)CCN1C(=O)[C@H](N)Cc1ccc(Cl)cc1Cl [Example 73]	14	24	91	35
N=C(N)NCCC[C@H]1C(=O)N(CCc2ccc3ccccc3c2)CCN1C(=O)[C@H](N)Cc1ccccc1Cl [Example 122]	3	5	69	2
NCCCNC(=O)[C@@H]1C[C@@H](OCc2ccccc2)CN1C(=O)[C@@H](Cc1ccccc1)NC(=O)[C@@H](N)Cc1ccc2ccccc2c1 [Example 164]	0	1	13	0
N[C@H](Cc1ccc(Cl)cc1Cl)C(=O)N1CCN(CCc2ccc3ccccc3c2)C(=O)[C@@H]1CCCCNC=O [Example 64]	8	6	30	0
CNC(=O)NCCC[C@H]1C(=O)N(CCc2ccc3ccccc3c2)CCN1C(=O)[C@@H](Cc1ccc(Cl)cc1Cl)NC(=O)[C@@H](N)COCc1ccccc1 [Example 45]	5	31	72	11
NC(=O)CC[C@H]1C(=O)N(CCc2ccc3ccccc3c2)CCN1C(=O)[C@H](N)Cc1ccc(Cl)cc1Cl [Example 50]	0	0	0	0
NC(=O)NCCCC[C@H]1C(=O)N(CCc2ccc3ccccc3c2)CCN1C(=O)[C@H](N)Cc1ccc(Cl)cc1Cl [Example 66]	43	14	49	15
NCCCC[C@H]1C(=O)N2C(CC[C@@H]2COc2ccc3ccccc3c2)N1C(=O)[C@@H](Cc1ccccc1Cl)NC(=O)[C@@H](N)C1Cc2ccccc2C1 (stereo partly shown) [Example 90]	10	46	12	0
N=C(N)NCCCC[C@H]1C(=O)N(CCc2ccc3ccccc3c2)CCN1C(=O)[C@H](N)Cc1ccc(Cl)cc1Cl [Example 67]	66	42	96	68

Structure (SMILES)	Inhibition at 1 μM MC1-R [1] [%]	Inhibition at 1 μM MC5-R (MC5-R) [%]	Inhibition at 1 μM MC4-R (MC4-R) [%]	Inhibition at 1 μM MC3-R (MC3-R) [%]
NCCCC[C@H]1C(=O)N(CCOc2ccc3ccccc3c2)CCN1C(=O)[C@@H](Cc1ccc(Cl)cc1)NC(=O)[C@@H](N)COCc1ccccc1 [Example 29]	64	72	64	21
NCCCNC(=O)[C@@H]1C[C@@H](OCc2ccccc2)CN1C(=O)[C@@H](Cc1ccccc1)NC(=O)c1ccc(CN)cc1 [Example 169]	12	0	6	0
NCCCNC(=O)[C@@H]1C[C@@H](OCc2ccccc2)CN1C(=O)[C@@H](Cc1ccccc1)NC(=O)[C@@H]1Cc2ccccc2N1 [Example 172]	14	0	4	0
NCCCC[C@H]1C(=O)N2C(CC[C@@H]2COc2ccc3ccccc3c2)N1C(=O)[C@@H](Cc1ccccc1Cl)NC(=O)[C@H]1Cc2ccccc2CN1 (stereo partly shown) [Example 93]	47	18	79	12
CC(=O)NC(Cc1cnc[nH]1)C(=O)NC(Cc1ccccc1)C(=O)N1CC(OCc2ccccc2)CC1C(=O)NCCCN (stereo not shown) [Example 139]	85	34	43	46
N[C@H](Cc1ccc(Cl)cc1Cl)C(=O)N1CCN(CCc2ccc3ccccc3c2)C(=O)[C@@H]1CCNC1=NCCN1 [Example 55]	24	27	68	14
NCCCC[C@H]1C(=O)N2C(CC[C@@H]2COc2ccc3ccccc3c2)N1C(=O)[C@@H](Cc1ccccc1Cl)NC(=O)[C@@H]1Cc2ccccc2N1 (stereo partly shown) [Example 95]	34	14	47	0
NCCCC[C@H]1C(=O)N2C(CC[C@@H]2COc2ccc3ccccc3c2)N1C(=O)[C@@H](Cc1ccccc1Cl)NC(=O)[C@@H]1C[C@H](Oc2ccc3ccccc3c2)CN1 (stereo partly shown) [Example 91]	21	17	0	0
CCCCCCC(=O)N[C@@H](COCc1ccccc1)C(=O)N[C@H](Cc1ccccc1Cl)C(=O)N1C2CC[C@H](COc3ccc4ccccc4c3)N2C(=O)[C@@H]1CCCCN (stereo partly shown) [Example 86]	71	47	82	30
NCCCNC(=O)[C@@H]1C[C@@H](OCc2ccccc2)CN1C(=O)[C@@H](Cc1ccccc1)NC(=O)[C@H](Cc1cnc[nH]1)NC(=O)Cc1ccc2ccccc2c1 [Example 141]	84	19	0	4
NCCC[C@H]1CN(CCc2ccc3ccccc3c2)CCN1C(=O)[C@H](N)Cc1ccc(Cl)cc1Cl [Example 130]	0	39	81	33
N[C@H](Cc1ccc(Cl)cc1Cl)C(=O)N1CCN(CCc2ccc3ccccc3c2)C(=O)[C@@H]1CCCNc1nncs1 [Example 70]	28	32	70	31
CC(=O)NCCCC1C(=O)N(CCc2ccc3ccccc3c2)CCN1C(=O)C(Cc1ccc(Cl)cc1Cl)NC(=O)C(N)COCc1ccccc1 (stereo not shown) [Example 42]	13	30	61	10
N=C(N)NCCC[C@H]1C(=O)N(CCc2c[nH]c3ccccc23)CCN1C(=O)[C@@H](Cc1ccccc1Cl)NC(=O)[C@@H](N)COCc1ccccc1 [Example 20]	87	71	98	40
N=C(N)NCCC[C@H]1C(=O)N(CCc2c[nH]c3ccccc23)CCN1C(=O)[C@@H](Cc1ccccc1Cl)NC(=O)[C@@H]1C[C@@H](OCc2ccccc2)CN1 [Example 19]	91	85	99	59
